Laboratory results reported in patent EP0590919A1, “Therapeutic agents for parkinson's disease” (KYOWA HAKKO KOGYO CO., LTD., priority 1992, dated 1994).

Assays:
dd-strain male mice = experiment: Acute toxicity test (minimum lethal dose, oral); assay type: in vivo; details: oral administration, three mice per group, mortality seven days after administration
Description: Test compounds were orally administered to groups of dd-strain male mice weighing 20 ± 1 g, each group consisting of three mice. Seven days after the administration, minimum lethal dose (MLD) of each compound was determined by observing the mortality.

A₂ receptor = target: T1, A₂ receptor (Rattus norvegicus, UniProt P30543); experiment: Adenosine A₂ receptor binding test (³H-NECA binding); details: ³H-NECA binding, rat corpus striatum, read-out: Inhibition (%) A₂ Receptor; for inhibition at 100 µM: 10⁻⁴M; for inhibition at 10 µM: 10⁻⁵M; for inhibition at 1 µM: 10⁻⁶M; for inhibition at 0.1 µM: 10⁻⁷M
T1 construct: from tissue; host or cells: rat corpus striatum membrane preparation
Description: The similar procedure as in the above-described adenosine A₁ receptor binding test was repeated using rat corpus striatum to obtain the final precipitate of the tissue thereof. The precipitate was suspended in 50 mM Tris HCl buffer containing 10 mM magnesium chloride and 0.02 unit/mg tissue of adenosine deaminase (manufactured by Sigma Co.) to give a tissue concentration of 5 mg (wet weight)/ml.
The mixture solution was allowed to stand at 25°C for 120 minutes and then treated in the same manner as in the adenosine A₁ receptor binding test to determine the radioactivity bound to the A₂ receptors.
The inhibition rate of the test compound against the binding of A₂ receptor (³H-NECA binding) was calculated by the following equation: [formula] [Notes] • 1.

T1 sequence (P30543 whole entry): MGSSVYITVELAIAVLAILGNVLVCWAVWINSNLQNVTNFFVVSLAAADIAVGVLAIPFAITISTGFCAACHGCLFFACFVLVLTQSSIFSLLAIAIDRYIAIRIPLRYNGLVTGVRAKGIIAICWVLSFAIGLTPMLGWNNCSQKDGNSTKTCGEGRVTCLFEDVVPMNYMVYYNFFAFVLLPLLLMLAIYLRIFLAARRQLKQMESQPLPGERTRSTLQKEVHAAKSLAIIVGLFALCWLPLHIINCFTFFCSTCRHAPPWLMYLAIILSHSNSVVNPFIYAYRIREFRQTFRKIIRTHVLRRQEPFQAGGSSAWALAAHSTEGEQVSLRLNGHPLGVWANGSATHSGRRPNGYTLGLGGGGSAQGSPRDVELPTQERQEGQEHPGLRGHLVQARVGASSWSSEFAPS

Row | SMILES | MLD (dd-strain male mice) | inhibition at 100 µM (A₂ receptor) | inhibition at 10 µM (A₂ receptor) | inhibition at 1 µM (A₂ receptor) | inhibition at 0.1 µM (A₂ receptor)
1 | CCn1c(=O)c2[nH]c(/C=C/c3cccc(OC)c3OC)nc2n(CC)c1=O [Compound 3, (E)-8-(2,3-Dimethoxystyryl)-1,3-diethylxanthine] | > 300 mg/kg |  |  |  | 
2 | CCn1c(=O)c2[nH]c(/C=C/c3ccc(OC)cc3OC)nc2n(CC)c1=O [Compound 5, (E)-8-(2,4-Dimethoxystyryl)-1,3-diethylxanthine] | > 100 mg/kg |  |  |  | 
3 | CCn1c(=O)c2[nH]c(/C=C/c3cc(C)c(OC)cc3C)nc2n(CC)c1=O [Compound 11, (E)-1,3-Diethyl-8-(4-methoxy-2,5-dimethylstyryl)xanthine] | > 300 mg/kg |  |  |  | 
4 | COc1cccc(/C=C/c2nc3c(=O)n(C)c(=O)n(C)c3[nH]2)c1OC [Compound 25, (E)-8-(2,3-Dimethoxystyryl)theophylline] | > 100 mg/kg | 70% | 76% |  | 
5 | COc1cccc(/C=C/c2nc3c(c(=O)n(C)c(=O)n3C)n2C)c1OC [Compound 26, (E)-8-(2,3-Dimethoxystyryl)caffeine] | > 300 mg/kg | 79% | 75% | 59% | 27%
6 | COc1ccc(/C=C/c2nc3c([nH]2)c(=O)n(C)c(=O)n3C)c(OC)c1 [Compound 27, (E)-8-(2,4-Dimethoxystyryl)theophylline] | > 100 mg/kg | 90% | 89% |  | 
7 | COc1ccc(/C=C/c2nc3c(c(=O)n(C)c(=O)n3C)n2C)c(OC)c1 [Compound 28, (E)-8-(2,4-Dimethoxystyryl)caffeine] | > 300 mg/kg | 99% | 86% | 80% | 46%
8 | COc1cc(C)c(/C=C/c2nc3c([nH]2)c(=O)n(C)c(=O)n3C)cc1C [Compound 29, (E)-8-(4-Methoxy-2,5-dimethylstyryl)theophylline] | > 100 mg/kg |  |  |  | 
9 | COc1cc(C)c(/C=C/c2nc3c(c(=O)n(C)c(=O)n3C)n2C)cc1C [Compound 30, (E)-8-(4-Methoxy-2,5-dimethylstyryl)caffeine] | > 100 mg/kg |  |  |  | 
10 | CCn1c(=O)c2[nH]c(/C=C/c3cc(C)ccc3C)nc2n(CC)c1=O [Compound 33, (E)-8-(2,5-Dimethylstyryl)-1,3-diethylxanthine] | > 300 mg/kg | 92% | 93% |  | 
11 | CCOc1ccc(/C=C/c2nc3c([nH]2)c(=O)n(CC)c(=O)n3CC)cc1 [Compound 35, (E)-8-(4-Ethoxystyryl)-1,3-diethylxanthine] | > 100 mg/kg |  |  | 71% | 54%
12 | CCCOc1ccc(/C=C/c2nc3c([nH]2)c(=O)n(CC)c(=O)n3CC)cc1 [Compound 37, (E)-1,3-Diethyl-8-(4-propoxystyryl)xanthine] | > 100 mg/kg |  |  | 60% | 56%
13 | CCn1c(=O)c2[nH]c(/C=C/c3ccccc3OC)nc2n(CC)c1=O [Compound 45, (E)-1,3-Diethyl-8-(2-methoxystyryl)xanthine] | > 100 mg/kg |  |  |  | 
14 | CCn1c(=O)c2c(nc(/C=C/c3ccccc3OC)n2C)n(CC)c1=O [Compound 46, (E)-1,3-Diethyl-8-(2-methoxystyryl)-7-methylxanthine] | > 100 mg/kg |  |  |  | 
15 | CCn1c(=O)c2[nH]c(/C=C/c3ccc(OC)c(OC)c3Cl)nc2n(CC)c1=O [Compound 49, (E)-8-(2-Chloro-3,4-dimethoxystyryl)-1,3-diethylxanthine] | > 100 mg/kg | 112% | 108% | 76% | 73%
16 | COc1ccc(/C=C/c2nc3c([nH]2)c(=O)n(C)c(=O)n3C)c(Cl)c1OC [Compound 51, (E)-8-(2-Chloro-3,4-dimethoxystyryl)theophylline] | > 100 mg/kg | 91% | 88% |  | 
17 | CCn1c(=O)c2[nH]c(/C=C/c3ccc(F)c(F)c3)nc2n(CC)c1=O [Compound 53, (E)-8-(3,4-Difluorostyryl)-1,3-diethylxanthine] | > 300 mg/kg |  |  |  | 
18 | CCn1c(=O)c2[nH]c(/C=C/c3ccc(OC)c(Br)c3)nc2n(CC)c1=O [Compound 55, (E)-8-(3-Bromo-4-methoxystyryl)-1,3-diethylxanthine] | > 100 mg/kg | 81% | 77% | 65% | 56%
19 | COc1ccc(/C=C/c2nc3c([nH]2)c(=O)n(C)c(=O)n3C)cc1Br [Compound 57, (E)-8-(3-Bromo-4-methoxystyryl)theophylline] | > 100 mg/kg |  |  |  | 
20 | COc1ccc(/C=C/c2nc3c(c(=O)n(C)c(=O)n3C)n2C)cc1Br [Compound 58, (E)-8-(3-Bromo-4-methoxystyryl)caffeine] | > 300 mg/kg | 78% | 84% |  | 

Row | SMILES | MLD (dd-strain male mice) | inhibition at 100 µM (A₂ receptor) | inhibition at 10 µM (A₂ receptor) | inhibition at 1 µM (A₂ receptor) | inhibition at 0.1 µM (A₂ receptor)
21 | CCn1c(=O)c2[nH]c(/C=C/c3cc(OC)c(OC)cc3Br)nc2n(CC)c1=O [Compound 59, (E)-8-(2-Bromo-4,5-dimethoxystyryl)-1,3-diethylxanthine] | > 100 mg/kg |  |  |  | 
22 | CCn1c(=O)c2c(nc(/C=C/c3cc(OC)c(OC)cc3Br)n2C)n(CC)c1=O [Compound 60, (E)-8-(2-Bromo-4,5-dimethoxystyryl)-1,3-diethyl-7-methylxanthine] | > 100 mg/kg | 84% | 75% |  | 
23 | CCn1c(=O)c2[nH]c(/C=C/c3cc(OC)c(OC)cc3[N+](=O)[O-])nc2n(CC)c1=O [Compound 61, (E)-8-(4,5-Dimethoxy-2-nitrostyryl)-1,3-diethylxanthine] | > 100 mg/kg |  |  |  | 
24 | CCn1c(=O)c2c(nc(/C=C/c3cc(OC)c(OC)cc3[N+](=O)[O-])n2C)n(CC)c1=O [Compound 62, (E)-8-(4,5-Dimethoxy-2-nitrostyryl)-1,3-diethyl-7-methylxanthine] | > 300 mg/kg |  |  |  | 
25 | CCn1c(=O)c2[nH]c(/C=C/c3cccc(Cl)c3)nc2n(CC)c1=O [Compound 69, (E)-8-(3-Chlorostyryl)-1,3-diethylxanthine] | > 100 mg/kg |  |  |  | 
26 | CCn1c(=O)c2[nH]c(/C(C)=C/c3ccccc3)nc2n(CC)c1=O [Compound 71, (E)-1,3-Diethyl-8-(α-methylstyryl)xanthine] | > 100 mg/kg |  |  |  | 
27 | CCn1c(=O)c2c(nc(/C(C)=C/c3ccccc3)n2C)n(CC)c1=O [Compound 72, (E)-1,3-Diethyl-7-methyl-8-(α-methylstyryl)xanthine] | > 300 mg/kg |  |  |  | 
28 | CCn1c(=O)c2[nH]c(/C=C/c3ccc(C(F)(F)F)cc3)nc2n(CC)c1=O [Compound 73, (E)-1,3-Diethyl-8-(4-trifluoromethylstyryl)xanthine] | > 100 mg/kg |  |  |  | 
29 | CCn1c(=O)c2[nH]c(/C(F)=C\c3ccccc3)nc2n(CC)c1=O [Compound 75, (E)-1,3-Diethyl-8-(α-fluorostyryl)xanthine] | > 100 mg/kg |  |  |  | 
30 | CCn1c(=O)c2[nH]c(/C=C/c3cc(C(F)(F)F)cc(C(F)(F)F)c3)nc2n(CC)c1=O [Compound 85, (E)-8-[3,5-Bis(trifluoromethyl)styryl]-1,3-diethylxanthine] | > 100 mg/kg |  |  |  | 
31 | CCn1c(=O)c2c(nc(/C=C/c3cc(F)cc(F)c3)n2C)n(CC)c1=O [Compound 88, (E)-8-(3,5-Difluorostyryl)-1,3-diethyl-7-methylxanthine] | > 100 mg/kg |  |  |  | 
32 | CCn1c(=O)c2[nH]c(/C=C/c3ccc(-c4ccccc4)cc3)nc2n(CC)c1=O [Compound 100, (E)-1,3-Diethyl-8-(4-phenylstyryl)xanthine] | > 100 mg/kg |  |  |  | 
33 | CCn1c(=O)c2[nH]c(/C=C/c3ccc(F)c(Cl)c3)nc2n(CC)c1=O [Compound 104, (E)-8-(3-Chloro-4-fluorostyryl)-1,3-diethylxanthine] | > 100 mg/kg |  |  |  | 
34 | CCn1c(=O)c2c(nc(/C=C/c3ccc(OC)c(O)c3)n2C)n(CC)c1=O [Compound 111, (E)-1,3-Diethyl-8-(3-hydroxy-4-methoxystyryl)-7-methylxanthine] | > 100 mg/kg |  |  |  | 
35 | CCn1c(=O)c2c(nc(/C=C/c3ccc(OCCCCN)cc3)n2C)n(CC)c1=O [Compound 116, (E)-8-[4-(4-Aminobutoxy)styryl]-1,3-diethyl-7-methylxanthine] | > 100 mg/kg |  |  |  | 
36 | CCOC(=O)COc1ccc(/C=C/c2nc3c(c(=O)n(CC)c(=O)n3CC)n2C)cc1 [Compound 117, (E)-8-(4-Ethoxycarbonylmethoxystyryl)-1,3-diethyl-7-methylxanthine] | > 100 mg/kg |  |  |  | 
37 | CCn1c(=O)c2c(nc(/C=C/c3ccc(OCC(=O)O)cc3)n2C)n(CC)c1=O [Compound 118, (E)-8-(4-Carboxymethoxystyryl)-1,3-diethyl-7-methylxanthine] | > 100 mg/kg |  |  |  | 
38 | CCn1c(=O)c2[nH]c(/C=C/c3cccc(Oc4ccccc4)c3)nc2n(CC)c1=O [Compound 119, (E)-1,3-Diethyl-8-(3-phenoxystyryl)xanthine] | > 100 mg/kg |  |  |  | 
39 | CCn1c(=O)c2[nH]c(/C=C/c3ccc(O)cc3)nc2n(CC)c1=O [Compound 121, (E)-1,3-Diethyl-8-(4-hydroxystyryl)xanthine] | > 100 mg/kg |  |  |  | 
40 | CCn1c(=O)c2c(nc(/C=C/c3ccc(O)c(C)c3C)n2C)n(CC)c1=O [Compound 122, (E)-1,3-Diethyl-8-(4-hydroxy-2,3-dimethylstyryl)-7-methylxanthine] | > 100 mg/kg |  |  |  | 
